Data: ChEMBL document CHEMBL1201862, “PubChem BioAssay data set” (2004)
Active and inactive are the calls of the source.

Assays:
Prothrombin = Prothrombin (Homo sapiens, UniProt P00734); assay: Thrombin 1536 HTS Dose Response Confirmation. [Related pubchem assays: 1046 (Thrombin 1536 HTS; hits were confirmed in this assay)]; format: functional
Cytochrome P450 3A4 = Cytochrome P450 3A4 (Homo sapiens, UniProt P08684);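 further: CYP3A4 tested as one member of a cytochrome P450 panel screen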
Caspase-6 = target: T1, Caspase-6 (Homo sapiens, UniProt P55212); assay: human caspase-6 inhibitors, dose response, biochemical, VEID-R110 fluorescence, cherry-pick (AID 720632)
T1 sequence (P55212 whole entry): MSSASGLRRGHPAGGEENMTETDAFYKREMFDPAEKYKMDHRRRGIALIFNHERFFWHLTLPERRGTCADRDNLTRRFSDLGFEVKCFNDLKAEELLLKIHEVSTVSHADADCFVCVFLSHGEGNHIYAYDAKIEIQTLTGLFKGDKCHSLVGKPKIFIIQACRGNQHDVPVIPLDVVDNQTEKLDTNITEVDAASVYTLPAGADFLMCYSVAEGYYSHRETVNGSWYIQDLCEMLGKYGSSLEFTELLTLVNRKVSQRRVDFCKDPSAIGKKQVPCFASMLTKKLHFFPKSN

[1] = Luminescence Cell-Based Dose Retest to Confirm Inhibitors of Cancer Stem Cells. [Related pubchem assays (depositor defined):AID2717, AID2721]; format: functional; conditions: Homo sapiens
[2] = HEp-2 cell cytotoxicity, dose response, cytotoxicity control for RSV inhibitor project, HTS (AID 2410); format: functional; conditions: human respiratory syncytial virus
[3] = Luminescence Cell-Based Dose Confirmation HTS to Identify Activators of 5'UTR Stem-Loop Driven Alpha-Synuclein mRNA Translation in H4 Neuroglioblastoma Cells. [Related pubchem assays: 1829 (Project Summary), 1814 (Primary HTS)]; format: functional
[4] = Luminescence Cell-Based Dose Response HTS to Identify Activators of Luciferase Translation or Activity in H4 […] Cells. [Related pubchem assays: 1829 (Project Summary), 1814 (Primary HTS)]; format: functional
H4 = assay: Luminescence Cell-Based Dose Response HTS to Identify Activators of 5'UTR Stem-Loop Driven Prion Protein mRNA Translation in H4 Neuroglioblastoma Cells. [Related pubchem assays: 1829 (Project Summary), 1814 (Primary HTS)]; format: functional; conditions: Homo sapiens
[5] = M. tuberculosis H37Rv growth inhibitors, H37Rv strain (AID 1626); format: functional
[6] = target: Mitogen-activated protein kinase 10 (Homo sapiens, UniProt P53779); assay: Dose response biochemical screening assay for inhibitors of c-Jun N-Terminal Kinase 3 (JNK3). [Related pubchem assays: 746 ]
Mitogen-activated protein kinase 10, sequence (P53779 whole entry): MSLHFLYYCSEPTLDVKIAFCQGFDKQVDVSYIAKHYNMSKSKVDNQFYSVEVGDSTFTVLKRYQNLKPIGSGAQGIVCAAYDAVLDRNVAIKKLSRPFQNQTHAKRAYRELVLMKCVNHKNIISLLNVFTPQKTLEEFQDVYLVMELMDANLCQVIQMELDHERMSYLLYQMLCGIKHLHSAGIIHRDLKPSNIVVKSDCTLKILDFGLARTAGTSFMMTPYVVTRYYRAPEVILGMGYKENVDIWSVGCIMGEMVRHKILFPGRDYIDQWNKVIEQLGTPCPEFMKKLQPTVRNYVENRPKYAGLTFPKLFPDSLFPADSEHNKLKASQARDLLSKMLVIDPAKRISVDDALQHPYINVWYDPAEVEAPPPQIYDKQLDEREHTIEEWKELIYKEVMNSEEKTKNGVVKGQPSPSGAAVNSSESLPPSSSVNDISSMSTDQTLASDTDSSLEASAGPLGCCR

[7] = Luminescence Cell-Based Dose Confirmation to Identify Activators of 5'UTR Stem-Loop Driven Alpha-Synuclein mRNA Translation in H4 Neuroglioblastoma Cells. [Related pubchem assays: 1829 (Project Summary), 1814 (Primary HTS)]; format: functional
[8] = target: T2, Sentrin-specific protease 8 (Homo sapiens, UniProt Q96LD8); format: functional;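 further: luminescence read-out of SENP8 inhibition, dose-response confirmation following an ultra-high-throughput screen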
T2 sequence (Q96LD8 whole entry): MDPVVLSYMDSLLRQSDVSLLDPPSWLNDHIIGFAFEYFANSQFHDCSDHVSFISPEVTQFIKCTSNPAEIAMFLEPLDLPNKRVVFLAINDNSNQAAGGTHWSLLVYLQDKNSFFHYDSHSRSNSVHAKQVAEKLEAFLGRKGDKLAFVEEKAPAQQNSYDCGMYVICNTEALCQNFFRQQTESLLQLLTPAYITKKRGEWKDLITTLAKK

[9] = target: T3, Sentrin-specific protease 6 (Homo sapiens, UniProt Q9GZR1); format: functional;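 further: Luminescence-based dose-response confirmatory assay of SENP6 inhibition, following up an ultra-high-throughput screen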
T3 sequence (Q9GZR1 whole entry): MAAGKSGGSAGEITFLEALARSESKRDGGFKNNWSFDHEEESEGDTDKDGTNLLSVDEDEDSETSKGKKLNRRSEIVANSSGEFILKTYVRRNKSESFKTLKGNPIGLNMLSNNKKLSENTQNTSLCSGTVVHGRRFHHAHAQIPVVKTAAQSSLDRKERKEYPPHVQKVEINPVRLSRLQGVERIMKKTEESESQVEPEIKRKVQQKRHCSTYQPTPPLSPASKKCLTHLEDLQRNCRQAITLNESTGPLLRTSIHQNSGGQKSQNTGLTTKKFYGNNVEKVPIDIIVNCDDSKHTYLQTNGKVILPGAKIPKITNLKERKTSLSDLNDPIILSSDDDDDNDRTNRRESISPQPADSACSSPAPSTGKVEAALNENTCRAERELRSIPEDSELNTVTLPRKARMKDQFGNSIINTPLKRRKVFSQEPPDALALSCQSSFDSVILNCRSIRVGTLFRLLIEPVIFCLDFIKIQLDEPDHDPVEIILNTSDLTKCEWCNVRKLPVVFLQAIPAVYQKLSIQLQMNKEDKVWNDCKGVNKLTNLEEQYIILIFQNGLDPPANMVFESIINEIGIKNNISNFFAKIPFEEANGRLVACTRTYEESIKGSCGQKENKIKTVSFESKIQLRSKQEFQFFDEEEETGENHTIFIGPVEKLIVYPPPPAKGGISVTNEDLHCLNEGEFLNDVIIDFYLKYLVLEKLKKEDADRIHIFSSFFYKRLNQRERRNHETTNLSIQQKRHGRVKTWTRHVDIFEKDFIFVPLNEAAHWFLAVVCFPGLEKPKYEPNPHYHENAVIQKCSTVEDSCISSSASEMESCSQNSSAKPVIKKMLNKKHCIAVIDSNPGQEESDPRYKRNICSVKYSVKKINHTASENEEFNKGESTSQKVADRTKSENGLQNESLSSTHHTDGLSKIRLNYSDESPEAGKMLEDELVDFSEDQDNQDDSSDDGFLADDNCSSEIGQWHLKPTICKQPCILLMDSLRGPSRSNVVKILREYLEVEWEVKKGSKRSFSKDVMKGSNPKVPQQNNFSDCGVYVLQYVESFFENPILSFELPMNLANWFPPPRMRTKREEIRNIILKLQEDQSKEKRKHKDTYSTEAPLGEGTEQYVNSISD

Caspase-3 = target: T4, Caspase-3 (Homo sapiens, UniProt P42574); format: functional;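 further: Dose-response selectivity test against caspase-3 for candidate inhibitors of sentrin-specific proteases (SENPs)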
T4 sequence (P42574 whole entry): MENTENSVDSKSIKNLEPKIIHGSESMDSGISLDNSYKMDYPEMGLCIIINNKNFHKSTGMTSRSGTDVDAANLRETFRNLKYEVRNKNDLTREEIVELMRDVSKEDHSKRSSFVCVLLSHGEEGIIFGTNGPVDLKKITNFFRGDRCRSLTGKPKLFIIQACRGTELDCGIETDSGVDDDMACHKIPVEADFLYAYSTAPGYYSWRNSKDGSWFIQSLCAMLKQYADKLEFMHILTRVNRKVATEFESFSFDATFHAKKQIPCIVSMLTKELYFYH

[10] = target: T5, Sentrin-specific protease 7 (Homo sapiens, UniProt Q9BQF6); format: functional;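 further: Luminescence-based dose-response confirmation of ultra-high-throughput screening hits, measuring inhibition of SENP7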
T5 sequence (Q9BQF6 whole entry): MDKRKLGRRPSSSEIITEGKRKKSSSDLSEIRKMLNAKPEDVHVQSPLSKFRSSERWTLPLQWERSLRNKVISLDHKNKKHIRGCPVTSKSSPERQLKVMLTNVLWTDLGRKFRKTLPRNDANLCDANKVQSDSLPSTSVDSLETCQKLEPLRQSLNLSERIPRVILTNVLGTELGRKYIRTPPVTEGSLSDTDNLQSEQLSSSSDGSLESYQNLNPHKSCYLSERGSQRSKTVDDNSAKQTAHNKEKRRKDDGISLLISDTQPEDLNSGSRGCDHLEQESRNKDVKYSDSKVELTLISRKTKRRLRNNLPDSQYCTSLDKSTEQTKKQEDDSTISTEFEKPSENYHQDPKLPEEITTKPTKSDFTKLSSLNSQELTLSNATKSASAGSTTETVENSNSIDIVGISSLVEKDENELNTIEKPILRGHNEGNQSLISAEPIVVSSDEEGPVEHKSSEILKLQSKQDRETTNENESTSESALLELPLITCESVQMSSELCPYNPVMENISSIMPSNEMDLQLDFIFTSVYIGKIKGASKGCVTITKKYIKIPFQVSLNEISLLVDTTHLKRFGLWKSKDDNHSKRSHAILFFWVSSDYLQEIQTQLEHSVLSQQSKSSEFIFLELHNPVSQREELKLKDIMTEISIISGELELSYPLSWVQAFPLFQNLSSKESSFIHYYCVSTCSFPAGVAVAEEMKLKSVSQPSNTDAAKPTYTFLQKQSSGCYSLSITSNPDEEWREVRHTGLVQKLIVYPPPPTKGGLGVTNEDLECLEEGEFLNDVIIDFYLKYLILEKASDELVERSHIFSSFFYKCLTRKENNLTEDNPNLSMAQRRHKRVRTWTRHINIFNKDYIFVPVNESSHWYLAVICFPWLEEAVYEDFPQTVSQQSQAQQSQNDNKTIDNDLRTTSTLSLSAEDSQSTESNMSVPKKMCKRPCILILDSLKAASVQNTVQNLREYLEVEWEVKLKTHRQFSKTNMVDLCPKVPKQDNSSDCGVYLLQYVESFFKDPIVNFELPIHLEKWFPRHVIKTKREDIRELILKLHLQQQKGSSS

[11] = Luminescence Cell-Based Dose Response to Identify Activators of Luciferase Translation or Activity in H4-C Neuroglioblastoma Cells. [Related pubchem assays: 1829 (Project Summary), 1814 (Primary HTS)]; format: functional
[12] = Luminescence Cell-Based Dose Response to Identify Activators of 5'UTR Stem-Loop Driven Prion Protein mRNA Translation in H4-C Neuroglioblastoma Cells. [Related pubchem assays: 1829 (Project Summary), 1814 (Primary HTS)]; format: functional
Fatty acid synthase [13] = target: T6, Fatty acid synthase (Homo sapiens, UniProt P49327); assay: FAS thioesterase domain inhibitors, dose response, biochemical, kinetic fluorescence intensity (AID 624326); format: functional;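 further: rate of fluorescence rise from hydrolysis of a fluorogenic O-methyl fluorescein ester substrate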
T6 sequence (P49327 whole entry, the tested form may be a part): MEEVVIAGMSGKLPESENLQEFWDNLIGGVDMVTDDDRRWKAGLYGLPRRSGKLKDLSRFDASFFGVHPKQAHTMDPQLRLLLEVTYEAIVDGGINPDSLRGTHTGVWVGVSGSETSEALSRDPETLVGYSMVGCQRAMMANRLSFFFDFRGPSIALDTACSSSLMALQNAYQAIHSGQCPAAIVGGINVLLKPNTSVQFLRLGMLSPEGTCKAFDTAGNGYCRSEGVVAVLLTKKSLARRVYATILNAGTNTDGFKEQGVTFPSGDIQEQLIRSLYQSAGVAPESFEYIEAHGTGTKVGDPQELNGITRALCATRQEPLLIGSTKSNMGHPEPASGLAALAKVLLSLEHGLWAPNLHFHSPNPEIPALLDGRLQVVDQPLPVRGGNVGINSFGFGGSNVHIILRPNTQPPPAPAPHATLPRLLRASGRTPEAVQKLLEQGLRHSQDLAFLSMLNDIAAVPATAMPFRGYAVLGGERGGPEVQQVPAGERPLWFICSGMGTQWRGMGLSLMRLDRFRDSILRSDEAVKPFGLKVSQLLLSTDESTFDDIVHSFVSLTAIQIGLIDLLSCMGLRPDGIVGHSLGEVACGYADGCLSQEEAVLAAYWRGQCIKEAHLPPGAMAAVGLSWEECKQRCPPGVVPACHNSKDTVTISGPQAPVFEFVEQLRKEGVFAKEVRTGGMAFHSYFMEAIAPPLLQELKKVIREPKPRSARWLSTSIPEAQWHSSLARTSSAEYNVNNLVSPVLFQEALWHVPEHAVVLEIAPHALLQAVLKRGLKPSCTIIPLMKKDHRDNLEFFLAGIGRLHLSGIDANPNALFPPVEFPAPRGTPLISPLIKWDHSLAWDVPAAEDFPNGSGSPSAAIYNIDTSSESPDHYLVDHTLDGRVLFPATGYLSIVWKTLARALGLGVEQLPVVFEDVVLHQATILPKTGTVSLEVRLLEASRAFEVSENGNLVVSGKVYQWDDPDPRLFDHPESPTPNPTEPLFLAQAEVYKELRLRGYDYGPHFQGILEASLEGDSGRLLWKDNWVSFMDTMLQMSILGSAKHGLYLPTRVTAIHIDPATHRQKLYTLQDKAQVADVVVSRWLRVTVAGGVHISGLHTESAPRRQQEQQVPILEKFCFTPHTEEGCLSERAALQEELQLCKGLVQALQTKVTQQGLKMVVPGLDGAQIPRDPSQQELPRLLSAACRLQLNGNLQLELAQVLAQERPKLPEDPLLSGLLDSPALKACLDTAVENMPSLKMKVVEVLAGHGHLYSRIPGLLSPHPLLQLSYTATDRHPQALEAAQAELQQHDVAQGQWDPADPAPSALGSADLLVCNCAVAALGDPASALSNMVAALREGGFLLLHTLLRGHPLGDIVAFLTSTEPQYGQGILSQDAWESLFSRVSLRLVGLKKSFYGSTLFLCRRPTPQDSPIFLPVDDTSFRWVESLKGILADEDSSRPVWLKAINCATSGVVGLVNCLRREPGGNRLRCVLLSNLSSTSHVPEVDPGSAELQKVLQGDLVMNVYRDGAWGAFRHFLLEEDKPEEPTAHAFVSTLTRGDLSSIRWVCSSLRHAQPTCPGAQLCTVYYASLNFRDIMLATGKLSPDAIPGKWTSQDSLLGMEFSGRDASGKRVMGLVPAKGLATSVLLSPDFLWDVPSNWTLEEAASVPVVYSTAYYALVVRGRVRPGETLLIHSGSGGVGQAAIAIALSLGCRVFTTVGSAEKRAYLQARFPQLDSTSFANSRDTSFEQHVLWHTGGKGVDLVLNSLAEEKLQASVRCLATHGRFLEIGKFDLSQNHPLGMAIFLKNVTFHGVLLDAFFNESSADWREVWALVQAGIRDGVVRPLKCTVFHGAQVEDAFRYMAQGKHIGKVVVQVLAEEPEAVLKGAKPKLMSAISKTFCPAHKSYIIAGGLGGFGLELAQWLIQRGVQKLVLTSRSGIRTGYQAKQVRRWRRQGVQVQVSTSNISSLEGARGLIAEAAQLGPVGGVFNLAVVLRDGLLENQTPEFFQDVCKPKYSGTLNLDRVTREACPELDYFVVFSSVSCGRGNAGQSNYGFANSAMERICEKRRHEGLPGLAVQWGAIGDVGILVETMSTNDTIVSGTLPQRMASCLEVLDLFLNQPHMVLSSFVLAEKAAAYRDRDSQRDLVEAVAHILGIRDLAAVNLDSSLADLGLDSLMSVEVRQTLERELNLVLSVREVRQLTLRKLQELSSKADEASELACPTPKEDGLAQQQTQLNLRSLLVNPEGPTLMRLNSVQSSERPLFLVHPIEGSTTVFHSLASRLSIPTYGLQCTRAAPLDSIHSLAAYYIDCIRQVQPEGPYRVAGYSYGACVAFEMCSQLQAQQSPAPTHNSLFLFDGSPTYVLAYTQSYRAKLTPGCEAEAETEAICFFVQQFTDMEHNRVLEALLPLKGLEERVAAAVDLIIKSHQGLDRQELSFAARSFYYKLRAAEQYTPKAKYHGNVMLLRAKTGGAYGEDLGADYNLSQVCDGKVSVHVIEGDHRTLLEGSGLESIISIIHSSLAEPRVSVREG

Fatty acid synthase [14] = target: T6, Fatty acid synthase; assay: FAS thioesterase domain inhibitors, dose response, biochemical, endpoint fluorescence intensity, uHTS hits (AID 624327); format: functional;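 further: fluorescence from hydrolysis of an O-methyl fluorescein acyl ester substrate by the enzyme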
[15] = P. falciparum Dd2 growth inhibitors, dose response, SYBR Green, cherry-picked samples (AID 1159567); format: functional, cell-based
[16] = HepG2 cell cytotoxicity, dose response, cytotoxicity control, cherry-picked samples (AID 1159577); format: functional, cell-based
[17] = P. falciparum 3D7-ScDHODH growth inhibitors, dose response, SYBR Green, dry powder samples (AID 1159570); format: functional, cell-based;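 further: parasite growth measured after 72 hours of compound exposure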
[18] = P. falciparum ATP4 D1247Y mutant growth inhibitors, dose response, NITD609-resistant line, SYBR Green, dry powder (AID 1159571); format: functional, cell-based;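 further: parasites synchronized at ring stage by sorbitol before testing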
[19] = P. falciparum Dd2 growth inhibitors, dose response, SYBR Green, dry powder samples (AID 1159566); format: functional, cell-based;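 further: potency for growth inhibition with lower SYBR green DNA signal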

Cytochrome P450 3A4, sequence (P08684 whole entry): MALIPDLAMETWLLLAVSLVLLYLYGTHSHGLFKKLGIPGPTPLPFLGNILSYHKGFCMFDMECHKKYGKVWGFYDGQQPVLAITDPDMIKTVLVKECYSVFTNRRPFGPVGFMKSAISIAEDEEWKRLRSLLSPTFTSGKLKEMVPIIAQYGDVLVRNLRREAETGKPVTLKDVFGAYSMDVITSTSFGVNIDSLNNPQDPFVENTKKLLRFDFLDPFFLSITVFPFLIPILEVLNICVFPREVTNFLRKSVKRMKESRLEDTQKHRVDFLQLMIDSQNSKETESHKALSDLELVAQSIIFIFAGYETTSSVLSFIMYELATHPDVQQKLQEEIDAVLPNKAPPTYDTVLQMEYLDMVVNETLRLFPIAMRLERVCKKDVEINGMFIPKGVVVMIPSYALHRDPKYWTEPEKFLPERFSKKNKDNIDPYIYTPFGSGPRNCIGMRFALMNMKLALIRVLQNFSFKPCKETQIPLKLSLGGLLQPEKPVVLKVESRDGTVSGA

## COC(=O)CSc1nnc(-c2ccccc2OC)n1-c1ccc(C)cc1
Prothrombin
  IC50: > 50 µM (not active)
Cytochrome P450 3A4
  AC50: 15.8 µM (inconclusive)

## Cc1ccc(C)n1-c1sc2c(c1C(=O)O)CCCC2
Caspase-6
  AC50: 6.02 µM (active)

## COCCNc1cc(-c2ccccc2)nc2cc(-c3cccc(F)c3)nn12
[1]
  AC50: 6.74 µM (active)
[2]
  CC50: 35.1 µM (active)
cells
  IC50: 41.8 µM (active)

## O=C1c2ccccc2C(=O)c2c([N+](=O)[O-])ccc(O)c21
Caspase-6
  AC50: 9.76 µM (active)

## COc1ccc(NC(=O)n2nc(OC(=O)c3cccs3)cc2N)cc1
[3]
  EC50: > 60 µM (not active)
[4]
  EC50: 12.1 µM (active)
H4
  EC50: 28.1 µM (active)
Prothrombin
  IC50: 12.7 µM (active)

## CC(C(=O)N=Nc1c(O)[nH]c2ccccc12)n1cnc2ccccc2c1=O (stereo unspecified)
cells
  IC50: > 50 µM (active)

## CCN(Cc1nc(O)c2ccccc2n1)C(=O)c1cc(C2CC2)nn1-c1ccccc1
cells
  IC50: 8.79 µM (active)

## Nc1nc(COc2ccc(Cl)cc2)cs1
[5]
  IC50: > 100 µM (active)

## O=C(CCCCCn1c(SCC(=O)c2ccccc2)nc2ccccc2c1=O)NCc1ccco1
[6]
  IC50: 38.9 µM (not active)

## CCCc1nc2sc3ccccc3c(=O)c2c(=O)n1Cc1ccc(OC)cc1
[5]
  IC50: > 100 µM (active)

## COc1ccc(OC)c(C(=O)c2coc3ccc(O)cc23)c1
[6]
  IC50: > 93.1 µM (not active)

## Cc1ccc(OCc2nc(-c3ccccc3)no2)c(C)c1
[7]
  EC50: 8.27 µM (active)
[8]
  IC50: 62 µM (active)
[4]
  EC50: < 0.1 µM (active)
[9]
  IC50: 11.8 µM (active)
Caspase-3
  IC50: 28.9 µM (active)
[10]
  IC50: 7.65 µM (active)
[11]
  EC50: > 12 µM (not active)
[12]
  EC50: 1.03 µM (active)

## COC(=O)c1n[nH]c(NC(=O)c2ccccc2Br)n1
Prothrombin
  IC50: 0.082 µM (active)

## Cc1cccn2c(=O)c(/C=C(\C#N)C(=O)NCc3ccco3)c(N3CCCCCC3)nc12
Fatty acid synthase [13]
  IC50: 9.53 µM (active)
[2]
  CC50: 22 µM (active)
Fatty acid synthase [14]
  IC50: 21.9 µM (inactive)
cells
  IC50: 22.5 µM (active)

## Nc1nnc(CC(=O)N/N=C/c2cccc(OCCOc3ccccc3)c2)s1
[7]
  EC50: 0.38 µM (active)
[4]
  EC50: < 0.1 µM (active)
H4
  EC50: 21.8 µM (active)
[11]
  EC50: 0.88 µM (active)
[12]
  EC50: 1.25 µM (active)

## CCOc1nn(-c2ccccc2)c(O)c1/C=N/c1ccc(OC)cc1
[5]
  IC50: > 100 µM (active)

## COc1cccc(S(=O)(=O)Nc2ccc3c(c2)[C@@H]2C[C@H](CC(=O)NCc4cccc(F)c4)O[C@@H](CO)[C@@H]2O3)c1
[15]
  AC50: 6.43 µM (active)
[16]
  AC50: 22.7 µM (active)

## C[C@@H]1CN([C@H](C)CO)C(=O)c2c(c3ccccc3n2C)-c2ccccc2CO[C@H]1CN(C)Cc1ccc(Cl)c(Cl)c1
[15]
  AC50: 3.7 µM (active)
[16]
  AC50: 30 µM (active)

## CC(C)CNC[C@@H]1[C@@H](c2ccccc2)[C@@H](CO)N1Cc1ccc(F)cc1
[17]
  AC50: 3.03 µM (active)
[18]
  AC50: 0.727 µM (active)
[15]
  AC50: 1.33 µM (active)
[19]
  AC50: 0.409 µM (active)

## COc1ccc2c3c(n(C)c2c1)[C@H](CO)N(CC1CCCCC1)CC31CCN(Cc2nccs2)CC1
[17]
  AC50: 1.26 µM (active)
[18]
  AC50: 1.52 µM (active)
[15]
  AC50: 1.94 µM (active)
[19]
  AC50: 1.62 µM (active)

## O=C(C1CCCCC1)N1CC(=O)N2[C@H](C1)[C@@H](c1ccc(C#Cc3cccc(F)c3)cc1)[C@@H]2CO
[15]
  AC50: 4.26 µM (active)
[16]
  AC50: > 39 µM (inactive)

## CCOC(=O)c1ccc(NC(=O)N2CCN(Cc3ccccc3)CC2)cc1
[5]
  IC50: > 100 µM (active)
